# Tests used:
# [1] = test system: HLA-A*24; experiment: MHC binding assay by UV-ligand exchange and beta2m ELISA, HLA-A*24; design: species or system human; details: binding to HLA-A*24 ranged by peptide exchange yield (UV-ligand exchange, β2m ELISA)
# From the text: (§1) MHC Binding Assays Candidate peptides for T cell based therapies according to the present invention were further tested for their MHC binding capacity (affinity). The individual peptide-MHC complexes were produced by UV-ligand exchange, where a UV-sensitive peptide is cleaved upon UV-irradiation, and exchanged with the peptide of interest as analyzed. Only peptide candidates that can effectively bind and stabilize the peptide-receptive MHC molecules prevent dissociation of the MHC complexes. To determine the yield of the exchange reaction, an ELISA was performed based on the detection of the light chain (β2m) of stabilized MHC complexes. The assay was performed as generally described in Rodenko et al. (Rodenko et al., 2006).
# (§2) 96 well MAXISorp plates (NUNC) were coated over night with 2 ug/ml streptavidin in PBS at room temperature, washed 4× and blocked for 1 h at 37° C. in 2% BSA containing blocking buffer. Refolded HLA-A*02:01/MLA-001 monomers served as standards, covering the range of 15-500 ng/ml. Peptide-MHC monomers of the UV-exchange reaction were diluted 100 fold in blocking buffer. Samples were incubated for 1 h at 37° C., washed four times, incubated with 2 ug/ml HRP conjugated anti-β2m for 1 h at 37° C., washed again and detected with TMB solution that is stopped with […]. Absorption was measured at 450 nm. Candidate peptides that show a high exchange yield (preferably higher than 50%, most preferred higher than 75%) are generally preferred for a generation and production of antibodies or fragments thereof, and/or T cell receptors or fragments thereof, as they show sufficient avidity to the MHC molecules and prevent dissociation of the MHC complexes.
# [2] = test system: CD8+ T cells; experiment: In vitro T-cell priming assay (aAPCs loaded with peptide/MHC and anti-CD28, multimer staining readout); format: cell-based, human; details: for Wells positive [%]: in vitro immunogenicity of HLA class I peptides; for Wells (in vitro immunogenicity of HLA class I peptides): CD8+ T cells of healthy donors, three stimulation cycles with peptide/MHC and anti-CD28 coated beads
# Method: In an aspect, the peptides are pre-screened for immunogenicity before being included in the warehouse. By way of example, and not limitation, the immunogenicity of the peptides included in the warehouse is determined by a method comprising in vitro T-cell priming through repeated stimulations of CD8+ T cells from healthy donors with artificial antigen presenting cells loaded with peptide/MHC complexes and anti-CD28 antibody.
# In order to obtain information regarding the immunogenicity of the TUMAPs of the present invention, the inventors performed investigations using an in vitro T-cell priming assay based on repeated stimulations of CD8+ T cells with artificial antigen presenting cells (aAPCs) loaded with peptide/MHC complexes and anti-CD28 antibody.
# In order to perform in vitro stimulations by artificial antigen presenting cells loaded with peptide-MHC complex (pMHC) and anti-CD28 antibody, the inventors first isolated CD8+ T cells from fresh HLA-A*02 leukapheresis products via positive selection using CD8 microbeads (Miltenyi Biotec, Bergisch-Gladbach, Germany) of healthy donors obtained from the University clinics Mannheim, Germany, after informed consent.
# PBMCs and isolated CD8+ lymphocytes were incubated in T-cell medium (TCM) until use consisting of RPMI-Glutamax (Invitrogen, Karlsruhe, Germany) supplemented with 10% heat inactivated human AB serum (PAN-Biotech, Aidenbach, Germany), 100 U/ml Penicillin/100 μg/ml Streptomycin (Cambrex, Cologne, Germany), 1 mM sodium pyruvate (CC Pro, Oberdorla, Germany), 20 μg/ml Gentamycin (Cambrex). 2.5 ng/ml IL7 (PromoCell, Heidelberg, Germany) and 10 U/ml IL-2 (Novartis Pharma, Nürnberg, Germany) were also added to the TCM at this step.
# Generation of pMHC/anti-CD28 coated beads, T-cell stimulations and readout was performed in a highly defined in vitro system using four different pMHC molecules per stimulation condition and 8 different pMHC molecules per readout condition.
# The purified co-stimulatory mouse IgG2a anti human CD28 Ab 9.3 (Jung et al., 1987) was chemically biotinylated using Sulfo-N-hydroxysuccinimidobiotin as recommended by the manufacturer (Perbio, Bonn, Germany). Beads used were 5.6 μm diameter streptavidin coated polystyrene particles (Bangs Laboratories, Illinois, USA).
# pMHC used for positive and negative control stimulations were A*0201/MLA-001 (peptide […] (SEQ ID NO. 303) from modified Melan-A/MART-1) and A*0201/DDX5-001 ([…] from DDX5, SEQ ID NO. 304), respectively.
# 800.000 beads/200 μl were coated in 96-well plates in the presence of 4×12.5 ng different biotin-pMHC, washed and 600 ng biotin anti-CD28 were added subsequently in a volume of 200 μl. Stimulations were initiated in 96-well plates by co-incubating 1×10^6 CD8+ T cells with 2×10^5 washed coated beads in 200 μl TCM supplemented with 5 ng/ml IL-12 (PromoCell) for 3 days at 37° C. Half of the medium was then exchanged by fresh TCM supplemented with 80 U/ml IL-2 and incubating was continued for 4 days at 37° C. This stimulation cycle was performed for a total of three times. For the pMHC multimer readout using 8 different pMHC molecules per condition, a two-dimensional combinatorial coding approach was used as previously described (Andersen et al., 2012) with minor modifications encompassing coupling to 5 different fluorochromes. Finally, multimeric analyses were performed by staining the cells with Live/dead near IR dye (Invitrogen, Karlsruhe, Germany), CD8-FITC antibody clone SK1 (BD, Heidelberg, Germany) and fluorescent pMHC multimers. For analysis, a BD LSRII SORP cytometer equipped with appropriate lasers and filters was used. Peptide specific cells were calculated as percentage of total CD8+ cells. Evaluation of multimeric analysis was done using the FlowJo software (Tree Star, Oregon, USA). In vitro priming of specific multimer+CD8+ lymphocytes was detected by comparing to negative control stimulations.
# [3] = test system: HLA-A*02; experiment: MHC binding assay by UV-ligand exchange and beta2m ELISA, HLA-A*02; design: species or system human; details: binding to HLA-A*02 ranged by peptide exchange yield (UV-ligand exchange, β2m ELISA)
# From the text: as §1, §2
# [4] = biological target: HLA-A2 (Homo sapiens, UniProt P04439, D140Y/D185E/D98H/E176V/E277Q/G131W/G231S/I119V/I121R/I166T/I218V/L10V/L300P/L318F/N151K/N90K/P208A/P217A/Q86G/Q94H/R138H/R169H/T345S); details: prediction in US20150306197 A1 / US20110142842 A1, not tested further; cited from earlier work
# [5] = test system: advanced non-resectable HCC; details: patients with advanced non-resectable HCC; cited from earlier work
Molecule,Wells positive [%] [2],Peptide exchange [3],further results
163 (DYLKGLASF; listed as Homo sapiens) [compound 163],+ (<20% = +),–,Peptide exchange [1]: ++++ (> = 75% = ++++)
3 (KLEENGDLYL; listed as Homo sapiens) [compound 3],–,++++ (> = 75% = ++++),–
147 (YLMDDTVEI; listed as Homo sapiens) [compound 147],–,++++ (> = 75% = ++++),–
167 (NYINRILKL; listed as Homo sapiens) [compound 167],+ (<20% = +),–,Peptide exchange [1]: ++++ (> = 75% = ++++)
KLFTSVFGV (listed as Homo sapiens) [SEQ ID No. 305],–,–,predicted binding to HLA-A2 / HLA-A*0201 [4]: binding to HLA-A*0201
125 (SLADYEHFV; listed as Homo sapiens) [compound 125],–,++++ (> = 75% = ++++),–
84 (ALCPRIHEV; listed as Homo sapiens) [compound 84],–,++++ (> = 75% = ++++),–
12 (GLLPLLHRA; listed as Homo sapiens) [compound 12],++++ (> = 70% = ++++),++++ (> = 75% = ++++),–
165 (DYTTWTALL; listed as Homo sapiens) [compound 165],+ (<20% = +),–,Peptide exchange [1]: ++++ (> = 75% = ++++)
158 (HYSQELSLLYL; listed as Homo sapiens) [compound 158],+ (<20% = +),–,Peptide exchange [1]: ++++ (> = 75% = ++++)
159 (LYNKGFIYL; listed as Homo sapiens) [compound 159],++++ (> = 70% = ++++),–,Peptide exchange [1]: ++++ (> = 75% = ++++)
34 (FLLATEVVTV; listed as Homo sapiens) [compound 34],–,++++ (> = 75% = ++++),–
16 (YTLDIPVLFGV; listed as Homo sapiens) [compound 16],–,++++ (> = 75% = ++++),–
112 (SLGKFTFDV; listed as Homo sapiens) [compound 112],–,++++ (> = 75% = ++++),–
126 (QMFQYFITV; listed as Homo sapiens) [compound 126],–,++++ (> = 75% = ++++),–
4 (KLMPGTYTL; listed as Homo sapiens) [compound 4],+ (<20% = +),++++ (> = 75% = ++++),–
92 (GLLFSLRSV; listed as Homo sapiens) [compound 92],–,++++ (> = 75% = ++++),–
51 (LLFSRLCGA; listed as Homo sapiens) [compound 51],–,++++ (> = 75% = ++++),–
258 (LLSERFINV; listed as Homo sapiens) [compound 258],–,++++ (> = 75% = ++++),–
204 (TYELRYFQI; listed as Homo sapiens) [compound 204],+ (<20% = +),–,Peptide exchange [1]: ++++ (> = 75% = ++++)

Molecule,Wells positive [%] [2],Peptide exchange [3],further results
95 (GLLGSLFFL; listed as Homo sapiens) [compound 95],–,++++ (> = 75% = ++++),–
249 (GLCERLVSL; listed as Homo sapiens) [compound 249],+ (<20% = +),++++ (> = 75% = ++++),–
245 (SLLDLPLSL; listed as Homo sapiens) [compound 245],–,++++ (> = 75% = ++++),–
133 (ALLPRLHQL; listed as Homo sapiens) [compound 133],–,++++ (> = 75% = ++++),–
248 (YLDRFLAGV; listed as Homo sapiens) [compound 248],–,++++ (> = 75% = ++++),–
300 (AYVLRLETL; listed as Homo sapiens) [compound 300],–,–,Wells (in vitro immunogenicity of HLA class I peptides) [2]: + (<20% = +)
23 (SLFSDEFKV; listed as Homo sapiens) [compound 23],++++ (> = 70% = ++++),–,–
229 (AILAHLNTV; listed as Homo sapiens) [compound 229],–,++++ (> = 75% = ++++),–
29 (YLLDPSITL; listed as Homo sapiens) [compound 29],+ (<20% = +),–,–
CNC(=O)c1cc(Oc2ccc(NC(=O)Nc3ccc(Cl)c(C(F)(F)F)c3)cc2)ccn1 [Sorafenib],–,–,increase of survival [5]: about 3 months
129 (RLQDILWFL; listed as Homo sapiens) [compound 129],–,++++ (> = 75% = ++++),–
26 (ALQEELTEL; listed as Homo sapiens) [compound 26],+ (<20% = +),–,–
296 (TYVDSSHTI; listed as Homo sapiens) [compound 296],–,–,Wells (in vitro immunogenicity of HLA class I peptides) [2]: + (<20% = +)
301 (AYKPGALTF; listed as Homo sapiens) [compound 301],–,–,Wells (in vitro immunogenicity of HLA class I peptides) [2]: + (<20% = +)
1 (LLYPEPWSV; listed as Homo sapiens) [compound 1],–,++++ (> = 75% = ++++),–
257 (GLYTDPCGV; listed as Homo sapiens) [compound 257],–,++++ (> = 75% = ++++),–
153 (FISERVEVV; listed as Homo sapiens) [compound 153],–,++++ (> = 75% = ++++),–
14 (ILAKDLFEI; listed as Homo sapiens) [compound 14],–,++++ (> = 75% = ++++),–
197 (EYSLFPGQVVI; listed as Homo sapiens) [compound 197],+ (<20% = +),–,–

# From patent US10143731B2, “Peptides and combination of peptides for use in immunotherapy against various cancers” (immatics biotechnologies GmbH, priority 2015, dated 2018)
